Source: patent US11208400B2, “Substituted 6-(1H-pyrazol-1-yl)pyrimidin-4-amine derivatives and uses thereof” (Bayer Aktiengesellschaft, priority 2016, dated 2021)

Each compound was assayed against T1, human Npt2a (Homo sapiens, UniProt Q06495) (assay: Npt2a activity cell based assay, membrane potential dye, CHO T-REx hNpt2a cells). Settings: doxycycline-induced, depolarization by sodium phosphate influx, average or median values if tested more than once.
T1 construct: expressed in transfected cells
T1 sequence (Q06495 1-639): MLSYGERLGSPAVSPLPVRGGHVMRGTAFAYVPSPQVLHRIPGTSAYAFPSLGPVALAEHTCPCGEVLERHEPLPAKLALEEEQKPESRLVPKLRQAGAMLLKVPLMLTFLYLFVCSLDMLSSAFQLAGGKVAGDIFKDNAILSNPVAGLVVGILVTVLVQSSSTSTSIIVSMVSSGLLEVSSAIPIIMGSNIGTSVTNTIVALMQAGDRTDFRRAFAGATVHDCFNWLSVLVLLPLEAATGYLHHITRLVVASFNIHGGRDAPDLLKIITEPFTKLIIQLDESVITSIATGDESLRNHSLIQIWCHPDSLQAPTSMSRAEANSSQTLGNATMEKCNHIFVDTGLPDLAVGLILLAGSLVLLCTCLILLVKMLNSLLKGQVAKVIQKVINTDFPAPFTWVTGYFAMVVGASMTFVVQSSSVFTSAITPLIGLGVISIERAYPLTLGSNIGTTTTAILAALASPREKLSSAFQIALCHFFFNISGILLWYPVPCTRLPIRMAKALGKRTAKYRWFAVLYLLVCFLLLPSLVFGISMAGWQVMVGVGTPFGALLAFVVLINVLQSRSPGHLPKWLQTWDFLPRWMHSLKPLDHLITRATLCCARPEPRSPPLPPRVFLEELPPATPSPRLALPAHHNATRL
How it was run: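 Cells were doxycycline-induced CHO T-REx hNpt2a, dye-loaded and pretreated 5 min at RT with 1 nM–50 μM compound in Na-free pH 7.4 buffer. IC50 was fit to the post/pre-trigger fluorescence ratio.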
For `Cc1nn(-c2cc(Nc3c(C)c(-c4ccc(OC(F)(F)F)cc4)nn3CC3CC3)ncn2)c(C)c1Cl` [Example 310, 6-(4-chloro-3,5-dimethyl-1H-pyrazol-1-yl)-N-{1-(cyclopropylmethyl)-4-methyl-3-[4-(trifluoromethoxy)phenyl]-1H-pyrazol-5-yl}pyrimidin-4-amine], the IC50 was 0.021 µM.
For `Cc1cc(C(F)F)n(-c2cc(Nc3c(C)c(-c4ccc(F)cn4)nn3C)ncn2)n1` [Example 465, 6-[5-(difluoromethyl)-3-methyl-1H-pyrazol-1-yl]-N-[3-(5-fluoropyridin-2-yl)-1,4-dimethyl-1H-pyrazol-5-yl]pyrimidin-4-amine], the IC50 was 0.17 µM.
With `Cc1ccc(-c2nn(CC3CC3)c(Nc3cc(-n4nc(C)cc4C)ncn3)c2C)cn1` [Example 529, N-[1-(cyclopropylmethyl)-4-methyl-3-(6-methylpyridin-3-yl)-1H-pyrazol-5-yl]-6-(3,5-dimethyl-1H-pyrazol-1-yl)pyrimidin-4-amine] the IC50 was 2.7 µM.
Work on `CCOC(=O)c1c(C)nn(-c2cc(Nc3c(C)c(-c4ccc(Cl)cc4)nn3C)ncn2)c1C` [Example 367, ethyl 1-(6-{[3-(4-chlorophenyl)-1,4-dimethyl-1H-pyrazol-5-yl]amino}pyrimidin-4-yl)-3,5-dimethyl-1H-pyrazole-4-carboxylate] yielded an IC50 of 0.04 µM.
In the case of `Cc1nn(-c2cc(Nc3c(C)c(-c4ccc(F)cc4)nn3CC3CC3)ncn2)c(C)c1C(C)O` (single isomer, unassigned) [Example 330, 1-[1-(6-{[1-(cyclopropylmethyl)-3-(4-fluorophenyl)-4-methyl-1H-pyrazol-5-yl]amino}pyrimidin-4-yl)-3,5-dimethyl-1H-pyrazol-4-yl]ethanol], the IC50 is reported as 0.022 µM.
`CCc1c(Nc2cc(-n3nc(C)c(C(=O)N4CC(F)(C(F)(F)F)C4)c3C)ncn2)nn(C)c1-c1ccc(F)cc1` [Example 85, [1-(6-{[4-ethyl-5-(4-fluorophenyl)-1-methyl-1H-pyrazol-3-yl]amino}pyrimidin-4-yl)-3,5-dimethyl-1H-pyrazol-4-yl][3-fluoro-3-(trifluoromethyl)azetidin-1-yl]methanone] showed an IC50 of 0.13 µM.
Compound `CCc1c(Nc2cc(-n3cc(C(F)(F)F)cn3)ncn2)nn(C)c1-c1ccc(F)cc1` [Example 250, N-[4-ethyl-5-(4-fluorophenyl)-1-methyl-1H-pyrazol-3-yl]-6-[4-(trifluoromethyl)-1H-pyrazol-1-yl]pyrimidin-4-amine] has an IC50 of 0.021 µM.
In the case of `Cc1nn(-c2cc(Nc3c(C)c(-c4ccc(F)cc4)nn3CC3CC3)ncn2)c(C)c1Cl` [Example 175, 6-(4-chloro-3,5-dimethyl-1H-pyrazol-1-yl)-N-[1-(cyclopropylmethyl)-3-(4-fluorophenyl)-4-methyl-1H-pyrazol-5-yl]pyrimidin-4-amine], the IC50 is reported as 0.014 µM.
Compound `Cc1nn(-c2cc(Nc3c(C)c(-c4ccc(C(F)F)nc4)nn3CC3CC3)ncn2)c(C)c1C#N` [Example 512, 1-[6-({1-(cyclopropylmethyl)-3-[6-(difluoromethyl)pyridin-3-yl]-4-methyl-1H-pyrazol-5-yl}amino)pyrimidin-4-yl]-3,5-dimethyl-1H-pyrazole-4-carbonitrile] has an IC50 of 1.4 µM.
`Cc1nn(-c2cc(Nc3c(C)nn(-c4ccc(F)cc4)c3C)ncn2)c(C)c1CC(C)(C)O` [Example 393, 1-[1-(6-{[1-(4-fluorophenyl)-3,5-dimethyl-1H-pyrazol-4-yl]amino}pyrimidin-4-yl)-3,5-dimethyl-1H-pyrazol-4-yl]-2-methylpropan-2-ol] showed an IC50 of 0.18 µM.
With `Cc1nn(-c2cc(Nc3c(C)c(-c4ccc(C(F)(F)F)nc4)nn3C)ncn2)c(C)c1Cl` [Example 550, 6-(4-chloro-3,5-dimethyl-1H-pyrazol-1-yl)-N-{1,4-dimethyl-3-[6-(trifluoromethyl)pyridin-3-yl]-1H-pyrazol-5-yl}pyrimidin-4-amine] the IC50 was 0.5 µM.
Work on `Cc1nn(-c2cc(Nc3c(C)c(-c4ccc(C(F)F)nc4)nn3C)ncn2)c(C)c1C(F)(F)F` [Example 473, N-{3-[6-(difluoromethyl)pyridin-3-yl]-1,4-dimethyl-1H-pyrazol-5-yl}-6-[3,5-dimethyl-4-(trifluoromethyl)-1H-pyrazol-1-yl]pyrimidin-4-amine] yielded an IC50 of 0.16 µM.
In the case of `CCc1c(Nc2cc(-n3nc4c(c3C)C(=O)CC4)ncn2)nn(C)c1-c1ccc(F)cc1` [Example 274, 2-(6-{[4-ethyl-5-(4-fluorophenyl)-1-methyl-1H-pyrazol-3-yl]amino}pyrimidin-4-yl)-3-methyl-5,6-dihydrocyclopenta[c]pyrazol-4(2H)-one], the IC50 is reported as 0.044 µM.
`Cc1nn(-c2cc(Nc3n[nH]c(-c4ccc(F)cc4)c3C)ncn2)c(C(F)F)c1Cl` [Example 140, 6-[4-chloro-5-(difluoromethyl)-3-methyl-1H-pyrazol-1-yl]-N-[5-(4-fluorophenyl)-4-methyl-1H-pyrazol-3-yl]pyrimidin-4-amine] gave an IC50 of 0.023 µM.
`Cc1nn(-c2cc(Nc3c(C)c(-c4ccccc4)nn3C)ncn2)c(C)c1Cl` [Example 86, 6-(4-chloro-3,5-dimethyl-1H-pyrazol-1-yl)-N-(1,4-dimethyl-3-phenyl-1H-pyrazol-5-yl)pyrimidin-4-amine] showed an IC50 of 0.05 µM.
Compound `Cc1cc(C)n(-c2cc(Nc3c(C)c(-c4ccc(C(F)F)cc4)nn3CC3CC3)ncn2)n1` [Example 305, N-{1-(cyclopropylmethyl)-3-[4-(difluoromethyl)phenyl]-4-methyl-1H-pyrazol-5-yl}-6-(3,5-dimethyl-1H-pyrazol-1-yl)pyrimidin-4-amine] has an IC50 of 0.027 µM.
`Cc1nn(-c2cc(Nc3c(C)c(-c4ccc(C#N)cc4)nn3C)ncn2)c(C)c1C(O)C(F)(F)F` (racemic) [Example 387, (±)-4-{5-[(6-{3,5-dimethyl-4-[2,2,2-trifluoro-1-hydroxyethyl]-1H-pyrazol-1-yl}pyrimidin-4-yl)amino]-1,4-dimethyl-1H-pyrazol-3-yl}benzonitrile] was tested, and the IC50 was 0.07 µM.
Work on `COc1c(C)nn(-c2cc(Nc3c(C)c(-c4ccc(C(F)(F)F)nc4)nn3C)ncn2)c1C` [Example 551, N-{1,4-dimethyl-3-[6-(trifluoromethyl)pyridin-3-yl]-1H-pyrazol-5-yl}-6-(4-methoxy-3,5-dimethyl-1H-pyrazol-1-yl)pyrimidin-4-amine] yielded an IC50 of 1.9 µM.
For `Cc1nn(-c2cc(Nc3c(C)c(-c4ccc(F)cc4)nn3CC3CC3)ncn2)c(C)c1C(C)(C)O` [Example 159, 2-[1-(6-{[1-(cyclopropylmethyl)-3-(4-fluorophenyl)-4-methyl-1H-pyrazol-5-yl]amino}pyrimidin-4-yl)-3,5-dimethyl-1H-pyrazol-4-yl]propan-2-ol], the IC50 was 0.008 µM.
`CCc1c(Nc2cc(-n3nc(C)c(C)c3O)ncn2)nn(C)c1-c1ccc(F)cc1` [Example 25, 1-(6-{[4-ethyl-5-(4-fluorophenyl)-1-methyl-1H-pyrazol-3-yl]amino}pyrimidin-4-yl)-3,4-dimethyl-1H-pyrazol-5-ol] was tested, and the IC50 was 1.07 µM.
`Cc1cc(C(F)F)n(-c2cc(Nc3nn(C)c(-c4ccc(F)cc4)c3C)ncn2)n1` [Example 69, 6-[5-(difluoromethyl)-3-methyl-1H-pyrazol-1-yl]-N-[5-(4-fluorophenyl)-1,4-dimethyl-1H-pyrazol-3-yl]pyrimidin-4-amine] showed an IC50 of 0.0084 µM.
`CNc1ccc(-c2nn(CC3CC3)c(Nc3cc(-n4nc(C)cc4C)ncn3)c2C)cc1` [Example 480, N-{1-(cyclopropylmethyl)-4-methyl-3-[4-(methylamino)phenyl]-1H-pyrazol-5-yl}-6-(3,5-dimethyl-1H-pyrazol-1-yl)pyrimidin-4-amine] showed an IC50 of 0.375 µM.
With `Cc1nn(-c2cc(Nc3c(Cl)c(-c4ccc(F)cc4)nn3C)ncn2)c2ccccc12` [Example 100, N-[4-chloro-3-(4-fluorophenyl)-1-methyl-1H-pyrazol-5-yl]-6-(3-methyl-1H-indazol-1-yl)pyrimidin-4-amine] the IC50 was 0.36 µM.
With `Cc1cc(C(F)F)n(-c2cc(Nc3c(C)c(-c4ccc(C#N)cc4)nn3CC3CC3)ncn2)n1` [Example 142, 4-[1-(cyclopropylmethyl)-5-{(6-[5-(difluoromethyl)-3-methyl-1H-pyrazol-1-yl]pyrimidin-4-yl}amino)-4-methyl-1H-pyrazol-3-yl]benzonitrile] the IC50 was 0.003 µM.
`COc1c(-c2ccc(F)cc2)nn(CC2CC2)c1Nc1cc(-n2nc(C)c(C(C)=O)c2C)ncn1` [Example 317, 1-[1-(6-{[1-(cyclopropylmethyl)-3-(4-fluorophenyl)-4-methoxy-1H-pyrazol-5-yl]amino}pyrimidin-4-yl)-3,5-dimethyl-1H-pyrazol-4-yl]ethanone] showed an IC50 of 0.45 µM.
With `CCc1c(Nc2cc(-n3nc(C)c(Cl)c3C)ncn2)nn(C)c1-c1ccc(F)cc1` [Example 99, 6-(4-chloro-3,5-dimethyl-1H-pyrazol-1-yl)-N-[4-ethyl-5-(4-fluorophenyl)-1-methyl-1H-pyrazol-3-yl]pyrimidin-4-amine] the IC50 was 0.05 µM.
`CCOC(=O)c1c(C)nn(-c2cc(Nc3c(C)c(-c4ccc(C(F)(F)F)cc4)nn3CC3CC3)ncn2)c1C` [Example 285, ethyl 1-[6-({1-(cyclopropylmethyl)-4-methyl-3-[4-(trifluoromethyl)phenyl]-1H-pyrazol-5-yl}amino)pyrimidin-4-yl]-3,5-dimethyl-1H-pyrazole-4-carboxylate] was tested, and the IC50 was 0.14 µM.
